The numbers were not newly measured in patent US20210161808A1, “Nasal Drug Delivery System of Brivaracetam or Salt Thereof” (Zenvision Pharma LLP, priority 2018, published 2021), which cites them from elsewhere.

Like-named read-outs stand apart in the source and are kept apart here.

Data set [1] has as its target synaptic vesicle protein 2A (SV2A) (Homo sapiens, UniProt Q7L0J3). The following applies: in the brain.

Chain of synaptic vesicle protein 2A (SV2A) (Q7L0J3 whole entry): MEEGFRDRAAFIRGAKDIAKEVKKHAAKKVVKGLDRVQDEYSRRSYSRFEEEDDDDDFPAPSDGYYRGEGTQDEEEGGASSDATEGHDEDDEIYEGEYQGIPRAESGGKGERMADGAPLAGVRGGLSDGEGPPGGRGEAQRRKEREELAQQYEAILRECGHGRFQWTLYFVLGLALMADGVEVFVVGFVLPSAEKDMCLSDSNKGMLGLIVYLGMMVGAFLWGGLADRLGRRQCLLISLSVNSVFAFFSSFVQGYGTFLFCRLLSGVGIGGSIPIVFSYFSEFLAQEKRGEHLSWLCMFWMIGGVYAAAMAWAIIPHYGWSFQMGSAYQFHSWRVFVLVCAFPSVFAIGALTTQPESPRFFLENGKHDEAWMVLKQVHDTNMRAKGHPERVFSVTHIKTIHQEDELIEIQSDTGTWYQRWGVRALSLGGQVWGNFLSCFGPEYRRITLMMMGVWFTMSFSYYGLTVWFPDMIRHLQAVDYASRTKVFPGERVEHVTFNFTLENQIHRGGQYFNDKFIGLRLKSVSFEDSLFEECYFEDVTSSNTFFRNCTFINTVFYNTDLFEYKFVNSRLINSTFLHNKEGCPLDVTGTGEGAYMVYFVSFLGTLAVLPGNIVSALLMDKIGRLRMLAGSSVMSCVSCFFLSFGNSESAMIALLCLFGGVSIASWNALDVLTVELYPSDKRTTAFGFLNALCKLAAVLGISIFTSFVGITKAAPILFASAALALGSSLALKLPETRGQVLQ

As to `CCC[C@@H]1CC(=O)N([C@@H](CC)C(N)=O)C1` [Brivaracetam, (2S)-2-[(4R)-2-oxo-4-propyltetrahydro-1H-pyrrol-1-yl] butanamide], the “affinity for synaptic vesicle protein 2A (SV2A)” value in data set [1] is “high and selective affinity”. Further, the solubility entry is reported as “freely soluble” (in acetone); “freely soluble” (in acetonitrile); “very soluble” (in buffer (pH 1.2, 4.5, and 7.4)); “very soluble” (in ethanol); “very soluble” (in glacial acetic acid); “very soluble” (in methanol). Moreover, the solubility entry (in n-hexane) was “very slightly soluble”, the solubility entry (in toluene) is given as “soluble” and the solubility entry (in water) was “very soluble”.
